We go through 4 compounds from ChEMBL document CHEMBL4257221, “Peptides comprising non-natural amino acids and methods of making and using the same” (2016).

Calls of active or inactive are those of the source. The calls are words filed in the database; no cut-off is given here. Numbered stars: 1 amine (or outer) side, 2 acyl side, 3 side chain; on linkers, the order of the positions; unused ones are H or OH. Square brackets hold non-standard residues; d marks the D form. Peptide text beside a SMILES is read from it. ξ: configuration not given here. X1 = O=C([C@H]1CCC[C@@H]1N[*:1])[*:2]; X2 = O=C([C@H]1CNC[C@@H]1N[*:1])[*:2]; ξβ3hL = CC(C)CC(N)CC(=O)O; ξβ3hK = NCCCCC(N)CC(=O)O; ξβ3hT = CC(O)C(N)CC(=O)O; ξβ3hV = CC(C)C(N)CC(=O)O; βAla = NCCC(=O)O

Data set [1] concerns Mus musculus. Briefly: Stimulation of Treg cells function in C57BL/6 mouse splenocytes assessed as suppression of anti-CD3-stimulated CD4+/CD25- naive T cells proliferation at 300 ug, ip pretreated daily for 5 days followed by splenocytes isolation and co-culture with CD4+/CD25- naive T cells. The format is functional, organism-based.
Data set [2] concerns Mus musculus. Briefly: Stimulation of Treg cells function in C57BL/6 mouse splenocytes assessed as suppression of anti-CD3-stimulated effector T cell proliferation pretreated ip daily for 5 days followed by splenocytes isolation and co-culture with untreated splenocytes at 1:1 ratio. Format: functional, organism-based.
In data set [3] the test system is Mus musculus. Briefly: Anti-parkinson's activity in MPTP-induced C57BL/6 mouse model of Parkinson's disease receiving adaptive transfer of splenocytes from 15 ug/day/5 days, ip compound treated donor mouse assessed as TH-positive neurons survival rate in substantia nigra at 15 ug/day, ip for 5 days measured on day 7 post MPTP intoxication by FJ-C staining based assay relative to control. The format is functional.

The test system of data set [4] is Mus musculus. In words: Anti-parkinson's activity in MPTP-induced C57BL/6 mouse model of Parkinson's disease receiving adaptive transfer of splenocytes from 15 ug/day/5 days, ip compound treated donor mouse assessed as TH-positive neurons survival rate in substantia nigra measured on day 7 post MPTP intoxication by FJ-C staining based assay (reference value: 24.5%). The format is functional.

A further data set deals with Chymotrypsin (Homo sapiens, UniProt Q99895+P17538+P40313+Q6GPI1). Briefly: Stability of the compound assessed as chymotrypsin (unknown origin)-mediated compound hydrolysis at 250 uM by HPLC analysis. Format: ADME.
The target of a further data set is Proteinase K (Engyodontium album, UniProt P06873). In words: Stability of the compound assessed as Tritirachium album proteinase K-mediated compound hydrolysis at 250 uM by HPLC analysis. The format is ADME. The settings on record: parengyodontium album.
A further data set has as its target Dipeptidyl peptidase 4 (Homo sapiens, UniProt P27487). Briefly: Stability of the compound assessed as DPP4 (unknown origin)-mediated compound hydrolysis at 250 uM by HPLC analysis. The format is ADME.
In data set [5] the target is T1, Vasoactive intestinal polypeptide receptor 1 (Homo sapiens, UniProt P32241).
T1 sequence (P32241 whole entry): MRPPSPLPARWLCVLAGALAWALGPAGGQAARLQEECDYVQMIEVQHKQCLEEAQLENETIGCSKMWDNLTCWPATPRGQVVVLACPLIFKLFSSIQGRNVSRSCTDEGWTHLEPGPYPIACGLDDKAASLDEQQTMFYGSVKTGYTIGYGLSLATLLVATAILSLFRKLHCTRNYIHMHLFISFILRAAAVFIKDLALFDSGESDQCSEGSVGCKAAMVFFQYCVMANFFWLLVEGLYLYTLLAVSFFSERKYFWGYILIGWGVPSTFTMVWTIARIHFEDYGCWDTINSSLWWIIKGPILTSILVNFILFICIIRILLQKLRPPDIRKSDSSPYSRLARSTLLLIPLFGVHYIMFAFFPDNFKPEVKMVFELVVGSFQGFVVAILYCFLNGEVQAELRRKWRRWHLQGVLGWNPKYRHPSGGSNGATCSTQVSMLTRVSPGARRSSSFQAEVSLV
In words: Agonist activity at human VIPR1 expressed in CHOK1 cells assessed as intracellular cAMP accumulation after 60 mins by PathHunter assay. The format is functional, cell-based.

Data set [6] deals with T2, Vasoactive intestinal polypeptide receptor 2 (Homo sapiens, UniProt P41587).
T2 sequence (P41587 whole entry): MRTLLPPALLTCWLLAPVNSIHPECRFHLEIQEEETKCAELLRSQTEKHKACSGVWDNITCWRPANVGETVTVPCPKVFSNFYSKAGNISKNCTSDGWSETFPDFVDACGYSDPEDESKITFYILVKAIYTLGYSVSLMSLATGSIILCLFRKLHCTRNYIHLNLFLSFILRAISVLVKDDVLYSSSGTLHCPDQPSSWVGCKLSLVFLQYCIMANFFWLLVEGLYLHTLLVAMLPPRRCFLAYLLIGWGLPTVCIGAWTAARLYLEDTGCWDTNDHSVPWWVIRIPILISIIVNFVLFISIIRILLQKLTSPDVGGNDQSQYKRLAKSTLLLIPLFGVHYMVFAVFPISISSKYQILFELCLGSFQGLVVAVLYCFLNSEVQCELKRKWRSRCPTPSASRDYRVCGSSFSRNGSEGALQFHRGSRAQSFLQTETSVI
Briefly: Agonist activity at human VIPR2 expressed in CHOK1 cells assessed as intracellular cAMP accumulation after 60 mins by PathHunter assay. The format is functional, cell-based.

Data set [7] has as its target T1, Vasoactive intestinal polypeptide receptor 1. Briefly: Induction of VIPR1 receptor internalization in CHOK1 cells expressing human VIPR1 by beta-galactosidase reporter gene assay. The format is functional, cell-based.

Dipeptidyl peptidase 4, sequence (P27487 whole entry): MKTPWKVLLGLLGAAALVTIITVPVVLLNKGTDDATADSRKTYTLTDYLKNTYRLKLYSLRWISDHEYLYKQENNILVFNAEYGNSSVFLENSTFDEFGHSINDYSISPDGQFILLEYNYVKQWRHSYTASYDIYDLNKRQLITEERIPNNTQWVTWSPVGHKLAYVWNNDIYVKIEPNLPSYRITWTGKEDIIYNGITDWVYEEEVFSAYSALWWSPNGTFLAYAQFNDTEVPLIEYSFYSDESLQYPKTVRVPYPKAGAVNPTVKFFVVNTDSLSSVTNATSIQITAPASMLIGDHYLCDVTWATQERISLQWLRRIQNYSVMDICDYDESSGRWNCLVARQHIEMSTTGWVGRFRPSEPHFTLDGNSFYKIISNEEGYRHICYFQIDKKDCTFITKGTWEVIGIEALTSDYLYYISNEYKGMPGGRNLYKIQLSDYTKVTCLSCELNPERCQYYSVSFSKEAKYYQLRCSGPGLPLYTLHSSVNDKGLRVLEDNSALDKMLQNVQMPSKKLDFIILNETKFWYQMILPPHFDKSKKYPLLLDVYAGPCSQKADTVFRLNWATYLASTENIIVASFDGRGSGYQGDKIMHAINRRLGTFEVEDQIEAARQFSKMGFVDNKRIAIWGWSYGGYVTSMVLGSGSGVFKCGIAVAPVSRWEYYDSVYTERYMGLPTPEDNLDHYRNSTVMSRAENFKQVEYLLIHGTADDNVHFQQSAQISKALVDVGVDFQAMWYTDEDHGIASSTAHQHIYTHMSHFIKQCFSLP
Proteinase K, sequence (P06873 whole entry): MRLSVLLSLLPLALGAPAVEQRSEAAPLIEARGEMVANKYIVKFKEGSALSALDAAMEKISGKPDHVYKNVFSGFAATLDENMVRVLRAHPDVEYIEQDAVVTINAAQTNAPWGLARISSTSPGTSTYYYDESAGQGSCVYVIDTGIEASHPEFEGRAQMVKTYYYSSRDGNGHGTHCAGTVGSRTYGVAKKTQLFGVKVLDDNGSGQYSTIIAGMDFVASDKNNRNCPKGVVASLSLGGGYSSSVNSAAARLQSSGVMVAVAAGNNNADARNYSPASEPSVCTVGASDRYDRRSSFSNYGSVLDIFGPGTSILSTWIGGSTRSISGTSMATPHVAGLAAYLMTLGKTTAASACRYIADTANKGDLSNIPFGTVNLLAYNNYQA

As to `CC[C@H](C)[C@H](NC(=O)C1CCCN1C(=O)[C@H](CCC(N)=O)NC(=O)[C@H](CC(C)C)NC(=O)[C@H](Cc1ccc(O)cc1)NC(=O)[C@H](CCCCN)NC(=O)[C@H](CCCCN)NC(=O)[C@H](C)NC(=O)C1CCCN1C(=O)[C@@H](NC(=O)[C@H](CCC(N)=O)NC(=O)C1CCCN1C(=O)[C@H](CCCNC(=N)N)NC(=O)[C@H](CC(C)C)NC(=O)[C@H](CCCNC(=N)N)NC(=O)[C@@H](NC(=O)[C@H](Cc1ccc(O)cc1)NC(=O)[C@H](CC(N)=O)NC(=O)[C@H](CC(=O)O)NC(=O)[C@@H](NC(=O)[C@H](Cc1ccccc1)NC(=O)[C@@H](NC(=O)[C@H](C)NC(=O)[C@H](CC(=O)O)NC(=O)[C@H](CO)NC(=O)[C@@H](N)Cc1cnc[nH]1)C(C)C)[C@@H](C)O)[C@@H](C)O)C(C)C)C(=O)N[C@@H](CCCCN)C(=O)N[C@@H](CC(N)=O)C(=O)N[C@@H](CCCCN)C(=O)N[C@@H](CCCNC(=N)N)C(=O)N[C@@H](Cc1ccc(O)cc1)C(=O)O` (some centres undefined), the outcome in the data set with Mus musculus [1] was Active. Further, the Activity entry in the data set on Mus musculus [2] was “Dose-dependent effect”. The figures for the Survival with Mus musculus [3] and in the data set with Mus musculus [4] were 69.1% and 50.2%, respectively.

Take `CCCC[C@H](NC(=O)[C@H](CCC(N)=O)NC(=O)[C@H](CCCCN)NC(=O)[C@H](CCCNC(=N)N)NC(=O)[C@H](CC(C)C)NC(=O)[C@H](CCCCN)NC(=O)[C@@H](NC(=O)[C@H](Cc1ccc(O)cc1)NC(=O)[C@H](CC(N)=O)NC(=O)[C@H](CCC(=O)OC(=O)[C@H](C)NC(=O)[C@H](CC(=O)O)NC(=O)[C@H](CO)NC(=O)[C@H](Cc1c[nH]cn1)NC(C)=O)NC(=O)[C@@H](NC(=O)[C@H](Cc1ccccc1)NC(=O)[C@@H](N)C(C)C)[C@@H](C)O)[C@@H](C)O)C(=O)N[C@@H](C)C(=O)N[C@@H](C)C(=O)N[C@@H](CCCCN)C(=O)N[C@@H](CCCCN)C(=O)N[C@@H](Cc1ccc(O)cc1)C(=O)N[C@@H](CC(C)C)C(=O)N[C@@H](CC(N)=O)C(=O)NC(=O)[C@@H](NC(=O)CNC(=O)CNC(=O)[C@@H]1CCCCN[C@@H](CC(N)=O)C(=O)N[C@@H](CC(C)C)C(=O)N[C@@H](CCCCN)C(=O)N1)[C@@H](C)O`: the Stability entry at Chymotrypsin, on Proteinase K and at Dipeptidyl peptidase 4 was “Stable” throughout.

`CC(=O)N[C@@H](Cc1cnc[nH]1)C(=O)N[C@H]1CCC[C@@H]1C(=O)N[C@@H](CC(=O)O)C(=O)N[C@@H](C)C(=O)N[C@H]1CCC[C@@H]1C(=O)N[C@@H](Cc1ccccc1)C(=O)N[C@H](C(=O)N[C@@H](CCC(=O)O)C(=O)N[C@@H](CC(N)=O)C(=O)N[C@@H](Cc1ccc(O)cc1)C(=O)N[C@H](C(=O)N[C@@H](CCCCN)C(=O)N[C@@H](CC(C)C)C(=O)N[C@@H](CCCNC(=N)N)C(=O)N[C@@H](CCCCN)C(=O)N[C@@H](CCC(N)=O)C(=O)N[C@@H](CC(C)C)C(=O)N[C@@H](C)C(=O)N[C@@H](C)C(=O)N[C@H]1CNC[C@@H]1C(=O)N[C@@H](CCCCN)C(=O)N[C@@H](Cc1ccc(O)cc1)C(=O)N[C@H]1CCC[C@@H]1C(=O)N[C@@H](CC(N)=O)C(=O)N[C@@H](CC(=O)O)C(=O)N[C@@H](CC(C)C)C(=O)NC(CCCCN)CC(=O)N[C@@H](CCCCN)C(=O)NCC(=O)NCCC(=O)N[C@H](C(=O)O)[C@@H](C)O)[C@@H](C)O)[C@@H](C)O` (stereo partly drawn) (Ac-H[X1]DA[X1]FTENYTKLRKQLAA[X2]KY[X1]NDL[ξβ3hK]KG[βAla]T-OH): the Stability entry at Chymotrypsin, on Proteinase K and on Dipeptidyl peptidase 4 was “Stable” in each case. In addition, the EC50 in data set [5] was found to be 133 nM; in data set [6], 0.646 nM.

On to `CC[C@H](C)[C@H](NC(=O)[C@H](C)NC(=O)[C@H](CC(N)=O)NC(=O)CC(CC(C)C)NC(=O)[C@H](Cc1ccc(O)cc1)NC(=O)[C@H](CCCCN)NC(=O)[C@H](CCCCN)NC(=O)CC(NC(=O)[C@H](C)NC(=O)[C@H](CC(C)C)NC(=O)[C@H](CCC(N)=O)NC(=O)CC(CCCCN)NC(=O)[C@H](CCCNC(=N)N)NC(=O)[C@H](CC(C)C)NC(=O)[C@H](CCCNC(=N)N)NC(=O)CC(NC(=O)[C@H](Cc1ccc(O)cc1)NC(=O)[C@H](CC(N)=O)NC(=O)[C@H](CC(=O)O)NC(=O)[C@@H](NC(=O)[C@H](Cc1ccccc1)NC(=O)[C@@H](NC(=O)[C@H](C)NC(=O)[C@H](CC(=O)O)NC(=O)[C@H](CO)NC(=O)[C@@H](N)Cc1cnc[nH]1)C(C)C)[C@@H](C)O)C(C)O)C(C)C)C(=O)NC(CC(=O)N[C@@H](CC(N)=O)C(=O)O)CC(C)C` (stereo partly drawn) (H-HSDAVFTDNY[ξβ3hT]RLR[ξβ3hK]QLA[ξβ3hV]KKY[ξβ3hL]NAI[ξβ3hL]N-OH), for which the EC50 in data set [7] turned out to be 10.2 nM; in data set [5], 2.17 nM.
